Reference: PMC6272242, “Topical Anti-inflammatory Activity of New Hybrid Molecules of Terpenes and Synthetic Drugs” (Molecules, 2015)

How the values were obtained:
[1] = test system: mice ear edema induced by arachidonic acid; assay: Topical anti-inflammatory effect, arachidonic acid (AA) induced ear edema in mice; assay type: in vivo; details: 3.2 µmol/mouse; for inhibition in vivo at 3.2 µmol/animal / % TAAA ± SEM (percent reduction of the ear edema, arachidonic acid): 1 h after AA; for inhibition in vivo at 3.2 µmol/animal: n = 8, read-out: % TAAA ± SEM (percent reduction of the ear edema, arachidonic acid); for % TAAA ± SEM (percent reduction of the ear edema, arachidonic acid): n = 8
Procedure: (§1) The inflammatory agent arachidonic acid (AA) and phorbol 12-myristate 13-acetate (TPA) were used to assess the anti-inflammatory effect/action mechanism of the starting compounds, new synthetic products and reference drugs. […] Adult male CF-1 mice (20–25 g), obtained from a stock maintained at the Chilean Public Health Institute, were used to assess the anti-inflammatory effect. All animals were housed in a climate- and light-controlled room with a 12 h light-dark cycle, fasted overnight before the day of the assays, with free access to water. The anti-inflammatory activity of each compound was evaluated in groups of 8 treated and 16 control mice. Due to ethical considerations, the number of animals was kept to a minimum and single dose experiments were carried out.
(§2) The pro-inflammatory agents TPA and AA, the reference drugs indomethacin and nimesulide were from Sigma. […] After 5 min, inflammation was induced by the application of 20 µL TPA or AA (5 mg/mL) in acetone. […] Control subjects only received TPA or AA. Both, the sample and the TPA or AA, were applied to the inner (10 µL) and outer (10 µL) surfaces of the right ear. The left ear only received acetone. Mice were sacrificed by cervical dislocation (after 6 h of TPA and 1 h AA), and a 6 mm diameter section of the right and left ears were cut and weighed. The weight differences between both ear sections correspond to the edema value. The percent topical anti-inflammatory activity (TA) was evaluated according to the following equation: (1) %TA=[ Wc−Ws/Wc]× 100 where Wc and Ws are the different median values of the weights of the right and the left ear sections of the control and the treated animals, respectively.
(§3) For the animal experiments all values are presented as median ± SEM. Drug-induced changes were statistically estimated using the Kruskall-Wallis test for comparison between groups and testing, and the Mann-Whitney test was used in the independent data for individual comparisons. The effects were considered significant if p ≤ 0.05. For cytotoxicity experiments, each concentration was tested in quadruplicate together with the control and repeated three times in different experiments. Results are expressed as IC50 values (µM) ± S.D.

hepatocytes HepG2 = assay: Cytotoxicity, MTT reduction assay, HepG2; assay type: cell-based; details: Homo sapiens, confluent cultures, 24 h, read-out: IC50 ± SD, HepG2
Procedure: The human cell lines, MRC-5 normal lung fibroblasts (CCL-171), AGS gastric epithelial adenocarcinoma cells (CRL-1739) and HepG2 hepatocellular carcinoma cells (HB-8065) were obtained from the American Type Culture Collection (ATCC, Manasas, VA, USA). The cells were grown as monolayers in the following media: MRC-5 and HepG2 in MEM and AGS in Ham F-12. The MEM medium contained 2 mM L-glutamine, 1 mM sodium pyruvate and 1.5 g/L sodium bicarbonate. Ham F-12 was supplemented with 2 mM L-glutamine and 1.5 g/L sodium bicarbonate. Both media were supplemented with 10% heat inactivated fetal bovine serum, 100 IU/mL penicillin and 100 µg/mL streptomycin in a humidified incubator with 5% CO2 in air at 37 °C. For the experiments, cells were plated at a density of 25,000 cells/mL in 96-well plates. […] Compounds were first dissolved in DMSO and then in medium. The final concentration of DMSO in the test medium and controls was 1%. […] The cell viability for each compound was calculated comparing the cell viability of the untreated controls (100%) with the cell viability of the different concentrations of each compound. Each concentration was tested in quadruplicate together with the control and repeated three times in separate experiments. Cell viability was determined at the end of the incubation by means of the MTT reduction assay. […] Culture media, antibiotics and fetal bovine serum were obtained from Invitrogen Corp. (Waltham, MA, USA). Other reagents were purchased from Sigma Chemical Co. For the animal experiments all values are presented as median ± SEM. Drug-induced changes were statistically estimated using the Kruskall-Wallis test for comparison between groups and testing, and the Mann-Whitney test was used in the independent data for individual comparisons. The effects were considered significant if p ≤ 0.05. For cytotoxicity experiments, each concentration was tested in quadruplicate together with the control and repeated three times in different experiments. Results are expressed as IC50 values (µM) ± S.D.

[2] = test system: gastric epithelial cells (AGS); assay: Cytotoxicity, MTT reduction assay, AGS; assay type: cell-based; details: Homo sapiens, Epithelial cell, confluent cultures, 24 h, read-out: IC50 ± SD, AGS
Procedure: (§4) The human cell lines, MRC-5 normal lung fibroblasts (CCL-171), AGS gastric epithelial adenocarcinoma cells (CRL-1739) and HepG2 hepatocellular carcinoma cells (HB-8065) were obtained from the American Type Culture Collection (ATCC, Manasas, VA, USA). The cells were grown as monolayers in the following media: MRC-5 and HepG2 in MEM and AGS in Ham F-12. The MEM medium contained 2 mM L-glutamine, 1 mM sodium pyruvate and 1.5 g/L sodium bicarbonate. Ham F-12 was supplemented with 2 mM L-glutamine and 1.5 g/L sodium bicarbonate. Both media were supplemented with 10% heat inactivated fetal bovine serum, 100 IU/mL penicillin and 100 µg/mL streptomycin in a humidified incubator with 5% CO2 in air at 37 °C. For the experiments, cells were plated at a density of 25,000 cells/mL in 96-well plates. […] Compounds were first dissolved in DMSO and then in medium. The final concentration of DMSO in the test medium and controls was 1%. […] The cell viability for each compound was calculated comparing the cell viability of the untreated controls (100%) with the cell viability of the different concentrations of each compound. Each concentration was tested in quadruplicate together with the control and repeated three times in separate experiments. Cell viability was determined at the end of the incubation by means of the MTT reduction assay. Results were converted to percentage of controls, and the IC50 values were graphically obtained from the dose-response curves. Culture media, antibiotics and fetal bovine serum were obtained from Invitrogen Corp. (Waltham, MA, USA). Other reagents were purchased from Sigma Chemical Co. For the animal experiments all values are presented as median ± SEM. Drug-induced changes were statistically estimated using the Kruskall-Wallis test for comparison between groups and testing, and the Mann-Whitney test was used in the independent data for individual comparisons. The effects were considered significant if p ≤ 0.05. For cytotoxicity experiments, each concentration was tested in quadruplicate together with the control and repeated three times in different experiments. Results are expressed as IC50 values (µM) ± S.D.

lung fibroblasts (MRC-5) = assay: Cytotoxicity, MTT reduction assay, MRC-5; assay type: cell-based; details: Homo sapiens, MRC5, confluent cultures, 24 h, read-out: IC50 ± SD, MRC-5
Procedure: as §4

[3] = test system: mice ear edema induced by 12-O-tetradecanoylphorbol 13-acetate; assay: Topical anti-inflammatory effect, 12-O-tetradecanoylphorbol 13-acetate (TPA) induced ear edema in mice; assay type: in vivo; details: 1.4 µmol/mouse; for % TATPA ± SEM (percent reduction of the ear edema, TPA) / inhibition in vivo at 1.4 µmol/animal: 6 h after TPA; for % TATPA ± SEM (percent reduction of the ear edema, TPA): n = 8; for inhibition in vivo at 1.4 µmol/animal: n = 8, read-out: % TATPA ± SEM (percent reduction of the ear edema, TPA)
Procedure: as §1, §2, §3

[4] = test system: human lung fibroblasts (MRC-5), gastric epithelial cells (AGS) and hepatocytes HepG2; assay: Cytotoxicity, MTT reduction assay, summary over the three cell lines; assay type: cell-based; details: for IC50: Homo sapiens, MRC-5, AGS and HepG2, 24 h, MTT, read-out: IC50 values, range over the three cell lines; for Cytotoxic effect, in words: MRC-5, AGS and HepG2
Procedure: as §4

Row | SMILES | inhibition in vivo at 3.2 µmol/animal [1] | IC50 (hepatocytes HepG2) | IC50 [2] | IC50 (lung fibroblasts (MRC-5)) | % TATPA ± SEM (percent reduction of the ear edema, TPA) [3] | inhibition in vivo at 1.4 µmol/animal [3] | IC50 [4] | Cytotoxic effect, in words [4] | % TAAA ± SEM (percent reduction of the ear edema, arachidonic acid) [1] | Activity in the AA model, in words [1] | Activity in the TPA assay, in words [3]
1 | COC(=O)[C@]12CCC(C)(C)CC1C1=CCC3[C@@]4(C)CC[C@H](OC(=O)[C@@H](C)c5ccc6cc(OC)ccc6c5)C(C)(C)C4CC[C@@]3(C)[C@]1(C)CC2 (some centres unmarked) [Compound 15, Oleanoyl naproxenate methyl ester] | 2.7 ± 8.1% | > 1000 µM | 593 ± 31 µM | 816 ± 42 µM | 80.0 ± 11.0 % | 80% |  |  |  |  | 
2 | COc1ccc2cc([C@H](C)C(=O)O[C@H]3CC[C@@]4(C)C(CC[C@]5(C)C4CC=C4C6CC(C)(C)CC[C@]6(C(=O)O)CC[C@]45C)C3(C)C)ccc2c1 (some centres unmarked) [Compound 14, Oleanoyl naproxenate] | 9 ± 11.3% | > 1000 µM | 486 ± 26 µM | 554 ± 22 µM |  | 55.5 ± 5.1% |  |  |  |  | 
3 | C=C1CCC2[C@](C)(CCC[C@]2(C)C(=O)OC)[C@H]1CC[C@@H](C)CCOC(=O)[C@@H](C)c1ccc2cc(OC)ccc2c1 (some centres unmarked) [Compound 11, Imbricatol-15-yl naproxenate methyl ester] | 20 ± 9.4% | > 1000 µM | 601 ± 25 µM | 907 ± 54 µM |  | 42.7 ± 8.3% | ≥ 601 µM |  |  |  | 
4 | COC(=O)[C@]12CCC(C)(C)CC1C1=CCC3[C@@]4(C)CC[C@H](OC(=O)[C@@H](C)c5ccc(CC(C)C)cc5)C(C)(C)C4CC[C@@]3(C)[C@]1(C)CC2 (mixture of isomers) [Compound 13, Oleanoyl ibuprofenate methyl ester] | 19.5 ± 9.2% | 742 ± 48 µM | 454 ± 21 µM | 402 ± 20 µM |  | 47.4 ± 2.6% |  |  |  |  | 
5 | COc1ccc2c(c1)c(CC(=O)O)c(C)n2C(=O)c1ccc(Cl)cc1 [Indomethacin, reference compound] |  |  |  |  | ↑92.9 ± 13.2 % | 92.9% |  |  |  |  | 
6 | C=C1CC[C@@H]2[C@](C)(CCC[C@]2(C)C(=O)O)[C@H]1CC[C@H](C)CCO [Compound 2, imbricatolic acid, reference compound] | 5 ± 3% | 111 ± 7 µM | 148 ± 9 µM | 134 ± 7 µM |  | 10.1 ± 4% | 111 to 148 µM | moderate |  |  | 
7 | COc1ccc2cc([C@H](C)C(=O)Oc3cc4c(cc3C(C)C)CCC3C(C)(C)CCC[C@]43C)ccc2c1 (some centres unmarked) [Compound 7, Ferruginyl naproxenate] | 26.6 ± 4.1% | > 1000 µM | 874 ± 49 µM | 945 ± 56 µM |  | 26.8 ± 3.8% | ≥ 874 µM |  |  |  | 
8 | CC(C)c1cc2c(cc1O)[C@@]1(C)CCCC(C)(C)[C@@H]1CC2 [Compound 1, ferruginol, reference compound] | 21 ± 2.1% | 39 ± 3 µM | 29 ± 1 µM | 31 ± 2 µM | 20.4 ± 3.1 *^,a % | 20.4 ± 3.1% | 29 to 39 µM | strong | 21.0 ± 2.1 *^,a % |  | 
9 | COc1cc([C@@H]2c3cc4c(cc3[C@@H](O[C@@H]3O[C@@H]5CO[C@@H](C)O[C@H]5[C@H](O)[C@H]3O)[C@H]3COC(=O)[C@H]23)OCO4)cc(OC)c1O [Etoposide, reference compound] |  | 2.4 ± 0.1 µM | 0.36 ± 0.02 µM | 3.9 ± 0.1 µM |  |  |  |  |  |  | 
10 | CS(=O)(=O)Nc1ccc([N+](=O)[O-])cc1Oc1ccccc1 [Nimesulide, reference compound] | 48.9% |  |  |  |  |  |  |  | ↑48.9 ± 5.5 % |  | 
11 | C=C1CCC2[C@](C)(CCC[C@]2(C)C(=O)O)[C@H]1CC[C@@H](C)CCOC(=O)[C@@H](C)c1ccc(CC(C)C)cc1 (mixture of isomers) [Compound 8, Imbricatol-15-yl ibuprofenate] | 10 ± 6% | 79 ± 8 µM | 23 ± 1 µM | 34 ± 2 µM |  | 40.3 ± 2.4% | 23 to 79 µM |  |  |  | 
12 | CC1(C)CC[C@]2(C(=O)O)CC[C@]3(C)C(=CC[C@@H]4[C@@]5(C)CC[C@H](O)C(C)(C)[C@@H]5CC[C@]43C)[C@@H]2C1 [Compound 3, oleanolic acid, reference compound] | 2.7 ± 7.5% | 170 ± 5 µM | 234 ± 16 µM | 186 ± 9 µM | 70.2 ± 8.3 *^,a % | 70.2 ± 8.3% |  |  |  | inactive | active
13 | COc1ccc2cc([C@H](C)C(=O)O)ccc2c1 [Compound 5, naproxen, reference compound] |  |  | > 1000 µM | > 1000 µM |  | 29.9 ± 6.2% |  |  |  | inactive | 
14 | CC(C)Cc1ccc([C@H](C)C(=O)O[C@H]2CC[C@@]3(C)C(CC[C@]4(C)C3CC=C3C5CC(C)(C)CC[C@]5(C(=O)O)CC[C@]34C)C2(C)C)cc1 (mixture of isomers) [Compound 12, Oleanoyl ibuprofenate] | 56.8% | > 1000 µM | 526 ± 19 µM | 616 ± 32 µM | 79.9 ± 10.6 % | 79.9% |  |  | 56.8 ± 7.4 % | significant effect | 
